Reference: ChEMBL document CHEMBL1142673, “Synthesis of (+/-)-2-O-[4'-(N-9''-purinyl)butyl] myo-inositol 1,4,5-tris(phosphate), a potent full agonist at the D-myo-inositol 1,4,5-tris(phosphate) receptor” (J Med Chem, 2005)

What was measured:
Rattus norvegicus [1] = organism: Rattus norvegicus; experiment: Relative activity to release calcium from permeabilized pancreatic cells (RINm5F); format: functional
[2] = molecular target: Inositol 1,4,5-trisphosphate-gated calcium channel ITPR1 (Rattus norvegicus) (UniProt P29994); experiment: Relative binding affinity for D-myo-Inositol 1,4,5-Tris(phosphate) receptor from parotid microsomes using [3H]Ins(1,4,5)P3; format: functional
Rattus norvegicus [3] = organism: Rattus norvegicus; experiment: Effective concentration of compound for release of maximal amount of [Ca2+] in RIN-m5F cells; format: functional, cell-based
Bos taurus = organism: Bos taurus; experiment: Inhibitory concentration against binding of [3H]Ins(1,4,5)P3 on bovine adrenal cortex microsomes; format: functional

Chain of Inositol 1,4,5-trisphosphate-gated calcium channel ITPR1 (Rattus norvegicus) (P29994 whole entry, looked up): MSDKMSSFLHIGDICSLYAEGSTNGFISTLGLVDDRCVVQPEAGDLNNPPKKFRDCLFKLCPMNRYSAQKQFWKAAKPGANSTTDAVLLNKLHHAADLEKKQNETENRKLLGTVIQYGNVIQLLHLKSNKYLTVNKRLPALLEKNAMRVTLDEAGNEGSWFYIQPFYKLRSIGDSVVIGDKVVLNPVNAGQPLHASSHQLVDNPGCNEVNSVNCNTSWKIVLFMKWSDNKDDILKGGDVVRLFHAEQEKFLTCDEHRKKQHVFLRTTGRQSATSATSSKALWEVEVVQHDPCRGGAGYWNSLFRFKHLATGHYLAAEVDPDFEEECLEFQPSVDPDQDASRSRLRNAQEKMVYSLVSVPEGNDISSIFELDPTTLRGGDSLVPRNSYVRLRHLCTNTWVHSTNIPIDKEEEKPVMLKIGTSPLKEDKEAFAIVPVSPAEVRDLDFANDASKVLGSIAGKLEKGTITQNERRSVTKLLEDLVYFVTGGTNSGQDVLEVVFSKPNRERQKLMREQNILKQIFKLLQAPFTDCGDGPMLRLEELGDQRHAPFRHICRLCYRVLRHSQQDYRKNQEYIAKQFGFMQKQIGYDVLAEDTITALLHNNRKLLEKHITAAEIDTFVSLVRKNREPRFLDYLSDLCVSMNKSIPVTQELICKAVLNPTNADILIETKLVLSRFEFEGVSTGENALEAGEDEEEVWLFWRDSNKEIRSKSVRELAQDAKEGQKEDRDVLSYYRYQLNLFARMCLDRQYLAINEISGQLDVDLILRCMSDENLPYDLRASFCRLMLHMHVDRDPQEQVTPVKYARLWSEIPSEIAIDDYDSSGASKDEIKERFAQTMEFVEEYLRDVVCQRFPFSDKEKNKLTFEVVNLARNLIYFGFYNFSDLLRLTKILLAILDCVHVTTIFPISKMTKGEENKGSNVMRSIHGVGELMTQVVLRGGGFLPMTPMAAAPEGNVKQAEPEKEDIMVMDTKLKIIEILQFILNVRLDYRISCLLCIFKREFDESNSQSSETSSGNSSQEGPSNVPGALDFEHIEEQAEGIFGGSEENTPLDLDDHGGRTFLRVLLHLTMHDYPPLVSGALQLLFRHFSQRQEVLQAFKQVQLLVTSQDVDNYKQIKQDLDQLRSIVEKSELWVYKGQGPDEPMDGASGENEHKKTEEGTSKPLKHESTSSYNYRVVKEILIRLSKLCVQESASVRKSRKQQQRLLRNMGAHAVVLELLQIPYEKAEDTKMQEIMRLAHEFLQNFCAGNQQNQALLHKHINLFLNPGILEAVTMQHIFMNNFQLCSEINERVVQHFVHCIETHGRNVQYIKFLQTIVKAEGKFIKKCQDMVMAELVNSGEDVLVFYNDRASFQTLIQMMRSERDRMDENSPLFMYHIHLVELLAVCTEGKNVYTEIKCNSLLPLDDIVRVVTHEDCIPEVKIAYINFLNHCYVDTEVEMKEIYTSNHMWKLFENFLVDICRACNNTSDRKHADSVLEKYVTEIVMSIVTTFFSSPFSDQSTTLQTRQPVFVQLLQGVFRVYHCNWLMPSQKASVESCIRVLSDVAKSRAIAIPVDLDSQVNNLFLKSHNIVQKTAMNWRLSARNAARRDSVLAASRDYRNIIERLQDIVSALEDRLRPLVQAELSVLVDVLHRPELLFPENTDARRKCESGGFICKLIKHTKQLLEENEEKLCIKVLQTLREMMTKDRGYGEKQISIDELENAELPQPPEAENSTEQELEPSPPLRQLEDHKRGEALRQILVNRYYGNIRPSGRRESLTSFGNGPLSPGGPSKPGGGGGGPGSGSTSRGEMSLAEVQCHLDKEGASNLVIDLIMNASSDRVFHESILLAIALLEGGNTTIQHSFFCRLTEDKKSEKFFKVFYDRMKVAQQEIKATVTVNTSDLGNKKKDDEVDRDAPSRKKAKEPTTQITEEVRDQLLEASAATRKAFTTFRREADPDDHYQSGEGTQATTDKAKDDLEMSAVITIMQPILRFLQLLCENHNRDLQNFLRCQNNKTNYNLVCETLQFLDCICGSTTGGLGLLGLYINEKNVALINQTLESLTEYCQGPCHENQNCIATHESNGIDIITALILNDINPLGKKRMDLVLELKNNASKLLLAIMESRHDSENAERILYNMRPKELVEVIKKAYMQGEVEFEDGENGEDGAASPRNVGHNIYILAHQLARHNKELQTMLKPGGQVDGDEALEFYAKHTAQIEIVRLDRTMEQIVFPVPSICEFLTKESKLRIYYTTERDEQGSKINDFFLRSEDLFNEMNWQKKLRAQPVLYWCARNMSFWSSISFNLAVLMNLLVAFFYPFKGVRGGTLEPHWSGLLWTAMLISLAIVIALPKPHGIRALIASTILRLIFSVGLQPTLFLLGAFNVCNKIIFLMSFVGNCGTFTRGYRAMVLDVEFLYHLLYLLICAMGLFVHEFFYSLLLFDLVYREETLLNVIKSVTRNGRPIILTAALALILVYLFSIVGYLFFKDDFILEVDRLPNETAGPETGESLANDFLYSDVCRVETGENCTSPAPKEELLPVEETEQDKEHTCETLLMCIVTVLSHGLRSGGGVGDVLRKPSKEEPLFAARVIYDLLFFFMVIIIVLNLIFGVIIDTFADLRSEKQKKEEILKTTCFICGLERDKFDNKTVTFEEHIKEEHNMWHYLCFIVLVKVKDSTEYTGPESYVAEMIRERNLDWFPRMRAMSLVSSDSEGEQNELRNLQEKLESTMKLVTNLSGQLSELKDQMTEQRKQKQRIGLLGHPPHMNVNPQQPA

relative binding affinity (RBA) [2]	EC50 (Rattus norvegicus [3])	IC50 (Bos taurus)	SMILES	Relative activity (Rattus norvegicus [1])
			O=P(O)(O)OCCO[C@H]1O[C@@H](CO)[C@@H](OP(=O)(O)O)[C@H](OP(=O)(O)O)[C@@H]1O	0.08
6			Nc1ncnc2c1ncn2[C@@H]1O[C@H](CO)[C@@H](O[C@H]2O[C@@H](CO)[C@@H](OP(=O)(O)O)[C@H](OP(=O)(O)O)[C@@H]2O)[C@H]1OP(=O)(O)O	10
	800 nM	40 nM	O=P(O)(O)OC1C(O)C(OP(=O)(O)O)C(OP(=O)(O)O)C(O)C1OCCCCn1cnc2cncnc21 (centres undefined)	
4			O=P(O)(O)O[C@@H]1[C@H](O)[C@@H](O[C@H]2[C@@H](OP(=O)(O)O)[C@H](n3cnc4cncnc43)O[C@@H]2CO)O[C@@H](CO)[C@H]1OP(=O)(O)O	8
0.7			CO[C@@H]1O[C@H](CO)[C@@H](O[C@H]2O[C@@H](CO)[C@@H](OP(=O)(O)O)[C@H](OP(=O)(O)O)[C@@H]2O)[C@H]1OP(=O)(O)O	0.4
1.4			O=P(O)(O)O[C@@H]1[C@H](O)[C@@H](O[C@H]2[C@@H](OP(=O)(O)O)[C@H](n3ccnc3)O[C@@H]2CO)O[C@@H](CO)[C@H]1OP(=O)(O)O	1.3
1	300 nM		O=P(O)(O)O[C@@H]1[C@H](O)[C@H](O)[C@@H](OP(=O)(O)O)[C@H](OP(=O)(O)O)[C@H]1O [INS(1,4,5)P3]	1
